Reference: ChEMBL document CHEMBL1201862, “PubChem BioAssay data set” (2004)
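These data come from cells grown in 96-well plates and exposed to compound for 48 hours at five concentrations. Here, GI50 denotes the concentration required for 50% inhibition of growth.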 Activity calls are given as the source filed them. Cut-off read from the data, not from the text of the source: active = GI50 up to about 1.1 µM and inactive = higher.

Experiments:
Test in all cases: growth of human tumour cells (NCI), 48 h
[1] = system: NCI-H23
[2] = system: HL-60
[3] = system: EKVX
[4] = system: HT-29
[5] = system: OVCAR-3
[6] = system: IGROV-1
[7] = system: SNB-19
[8] = system: UACC-257
[9] = system: SNB-78
[10] = system: HCC 2998
[11] = system: A498
[12] = system: M14
[13] = system: NCI-H522
[14] = system: SK-OV-3
[15] = system: NCI-H460
[16] = system: HOP-62

Measured: GI50

CC(C)(C)[C@H]1CC[C@@](O)(c2ccccc2)CC1.CC(C)(C)[C@H]1CC[C@](O)(c2ccccc2)CC1
inactive: [1] 30.1 µM | [2] 16.3 µM | [3] 23.1 µM | [4] 16.2 µM | [5] 17.2 µM | [6] 25.9 µM | [7] 25.2 µM | [8] 22.2 µM | [9] 21.8 µM | [10] 26.5 µM | [11] 19.5 µM | [12] 18.2 µM | [13] 23.4 µM | [14] 72.8 µM | [15] 27 µM | [16] 26.7 µM

Cc1c(C(=O)CC(=O)C(=O)Nc2c(C(C)C)cccc2C(C)C)[n+]([O-])c2ccccc2[n+]1[O-]
inactive: [1] 13.2 µM | [2] 2.4 µM | [3] 13.8 µM | [4] 3.56 µM | [5] 2.08 µM | [6] 3.55 µM | [7] 7.73 µM | [8] 3.36 µM | [9] 12.4 µM | [10] 5.14 µM | [11] 29.4 µM | [12] 3.4 µM | [13] 2.25 µM | [14] 16.7 µM | [15] 2.62 µM | [16] 29.7 µM

NC(=O)OCC(COc1ccc(Cl)cc1)OC(=O)c1ccccc1Cl (configuration not stated)
inactive: [1] 20.5 µM | [2] 21.9 µM | [3] 25.4 µM | [4] 17.6 µM | [5] 20.3 µM | [6] 25.5 µM | [7] 28.1 µM | [8] 19 µM | [9] 36.1 µM | [10] 23.8 µM | [11] > 100 µM | [12] 18.7 µM | [13] 16.9 µM | [14] > 100 µM | [15] 16.8 µM | [16] 20.9 µM

O=C(CC(=O)c1cccc([N+](=O)[O-])c1)C(=O)Nc1nc([N+](=O)[O-])cs1
inactive: [1] > 100 µM | [2] > 100 µM | [3] > 100 µM | [4] > 100 µM | [5] > 100 µM | [6] > 100 µM | [7] > 100 µM | [8] > 100 µM | [9] > 100 µM | [10] > 100 µM | [11] > 100 µM | [12] > 100 µM | [13] 33.3 µM | [14] > 100 µM | [15] > 100 µM | [16] > 100 µM

CC(C)(C)C1CCN(C(=O)c2ccccc2)CC1
inactive: [1] > 100 µM | [2] 32.9 µM | [3] > 100 µM | [4] > 100 µM | [5] 36.8 µM | [6] > 100 µM | [7] > 100 µM | [8] 41.1 µM | [9] > 100 µM | [10] > 100 µM | [11] > 100 µM | [12] > 100 µM | [13] 62.7 µM | [14] > 100 µM | [15] > 100 µM | [16] > 100 µM

[O-][S+]1Nc2c(Cl)cc(Cl)c(Cl)c2S1 (configuration not stated)
inactive: [1] > 100 µM | [2] 32.7 µM | [3] > 100 µM | [4] > 100 µM | [5] 78.2 µM | [6] > 100 µM | [7] > 100 µM | [8] > 100 µM | [9] > 100 µM | [10] > 100 µM | [11] 82.6 µM | [12] > 100 µM | [13] 78.9 µM | [14] > 100 µM | [15] > 100 µM | [16] > 100 µM

O=C1NC(=O)C(=O)C(c2nc3ccccc3s2)C1=O
inactive: [1] > 100 µM | [2] > 100 µM | [3] > 100 µM | [4] > 100 µM | [5] > 100 µM | [6] > 100 µM | [7] > 100 µM | [8] > 100 µM | [9] > 100 µM | [10] > 100 µM | [11] > 100 µM | [12] > 100 µM | [13] > 100 µM | [14] > 100 µM | [15] > 100 µM | [16] > 100 µM
